Tests used:
Test in all cases: Bliss interaction score (quartile over a dose matrix) (fitness difference); higher = more antagonism (negative = synergy)
S. pneumoniae D39V = test system: S. pneumoniae D39V
Method in brief: (§1)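 The Bliss score was calculated by subtracting the expected fitness, the product of single-drug values, from the observed fitness. OD595 at entry into stationary phase, over the plate's robust no-drug mean and capped at 1, served as the fitness readout. Single-drug values were inferred from combination data, and scores are summarised by quartiles across technical, biological and donor/recipient replicates.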

B. subtilis 168 = test system: B. subtilis 168
Method in brief: as §1

S. aureus DSM 20231 = test system: S. aureus DSM 20231
Method in brief: as §1

S. aureus Newman = test system: S. aureus Newman
Method in brief: as §1
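Further: first quartile when negative (synergy) and third quartile when positive (antagonism).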

Compound | Bliss interaction score (S. pneumoniae D39V) | Bliss interaction score (B. subtilis 168) | Bliss interaction score (S. aureus DSM 20231) | Bliss interaction score (S. aureus Newman)
CN(C)[C@@H]1C(O)=C(C(N)=O)C(=O)[C@@]2(O)C(O)=C3C(=O)c4c(O)ccc(Cl)c4[C@@](C)(O)[C@H]3C[C@@H]12 [Clortetracycline] + C[C@@H]1O[C@@H]1P(=O)(O)O [Fosfomycin] | 0.0517 | 0.0913 | -0.158 | -0.161
CN(C)[C@@H]1C(O)=C(C(N)=O)C(=O)[C@@]2(O)C(O)=C3C(=O)c4c(O)ccc(Cl)c4[C@@](C)(O)[C@H]3C[C@@H]12 [Clortetracycline] + CN[C@H](CC(C)C)C(=O)N[C@H]1C(=O)N[C@@H](CC(N)=O)C(=O)N[C@H]2C(=O)N[C@H]3C(=O)N[C@H](C(=O)N[C@H](C(=O)O)c4cc(O)cc(O)c4-c4cc3ccc4O)[C@H](O)c3ccc(c(Cl)c3)Oc3cc2cc(c3O[C@@H]2O[C@H](CO)[C@@H](O)[C@H](O)[C@H]2O[C@H]2C[C@](C)(N)[C@H](O)[C@H](C)O2)Oc2ccc(cc2Cl)[C@H]1O [Vancomycin] | 0.0542 | -0.0454 | -0.0315 | 0.0562
CN(C)[C@@H]1C(O)=C(C(N)=O)C(=O)[C@@]2(O)C(O)=C3C(=O)c4c(O)ccc(Cl)c4[C@@](C)(O)[C@H]3C[C@@H]12 [Clortetracycline] + CC1(C)S[C@@H]2[C@H](NC(=O)Cc3ccccc3)C(=O)N2[C@H]1C(=O)O [PenicillinG] | -0.0336 | 0.123 | 0.0499 | -0.0614
COc1cccc2c1C(=O)c1c(O)c3c(c(O)c1C2=O)C[C@@](O)(C(=O)CO)C[C@@H]3O[C@H]1C[C@H](N)[C@H](O)[C@H](C)O1 [Doxorubicin] + CO[C@@]12[C@H](COC(N)=O)C3=C(C(=O)C(C)=C(N)C3=O)N1C[C@@H]1N[C@@H]12 [MitomycinC] | -0.0709 | -0.269 | -0.0314 | 0.122
N#CC(C#N)=NNc1cccc(Cl)c1 [CCCP] + C[C@@H]1O[C@@H]1P(=O)(O)O [Fosfomycin] | 0.0604 | 0.0638 | 0.0417 | 0.0906
CN(C)[C@@H]1C(O)=C(C(N)=O)C(=O)[C@@]2(O)C(O)=C3C(=O)c4c(O)ccc(Cl)c4[C@@](C)(O)[C@H]3C[C@@H]12 [Clortetracycline] + Cc1onc(-c2ccccc2)c1C(=O)N[C@@H]1C(=O)N2[C@@H]1SC(C)(C)[C@@H]2C(=O)O [Oxacillin] | 0.125 | 0.0896 | 0.0471 | 0.0386
N#CC(C#N)=NNc1cccc(Cl)c1 [CCCP] + CO[C@H]1/C=C/O[C@@]2(C)Oc3c(C)c(O)c4c(O)c(c(/C=N/N5CCN(C)CC5)c(O)c4c3C2=O)NC(=O)/C(C)=C\C=C\[C@H](C)[C@H](O)[C@@H](C)[C@@H](O)[C@@H](C)[C@H](OC(C)=O)[C@@H]1C [Rifampicin] | 0.0879 | -0.0783 | 0.0329 | 0.0395
N#CC(C#N)=NNc1cccc(Cl)c1 [CCCP] + Oc1cc(Cl)ccc1Oc1ccc(Cl)cc1Cl [Triclosan] | 0.0866 | 0.0443 | 0.0338 | -0.021
C[C@@H]1O[C@@H]1P(=O)(O)O [Fosfomycin] + Oc1cc(Cl)ccc1Oc1ccc(Cl)cc1Cl [Triclosan] | 0.0597 | -0.0701 | 0.0662 | 0.0573
C[C@H]1c2cccc(O)c2C(=O)C2=C(O)[C@]3(O)C(=O)C(C(N)=O)=C(O)[C@@H](N(C)C)[C@@H]3[C@@H](O)[C@@H]21 [Doxycycline] + CC(=O)O[C@H]1C[C@@]2(C)[C@@H](C[C@@H](O)[C@H]3[C@@]4(C)CC[C@@H](O)[C@@H](C)[C@@H]4CC[C@@]32C)/C1=C(\CCC=C(C)C)C(=O)O [Fusidic acid] | -0.0559 | -0.049 | -0.0196 | 0.0131
N#CC(C#N)=NNc1cccc(Cl)c1 [CCCP] + C[C@H]1COc2c(N3CCN(C)CC3)c(F)cc3c(=O)c(C(=O)O)cn1c23 [Levofloxacin] | 0.0909 | 0.0457 | -0.0231 | 0.0426
CN(C)[C@@H]1C(O)=C(C(N)=O)C(=O)[C@@]2(O)C(O)=C3C(=O)c4c(O)ccc(Cl)c4[C@@](C)(O)[C@H]3C[C@@H]12 [Clortetracycline] + CC[C@H]1OC(=O)[C@H](C)C(=O)[C@H](C)[C@@H](O[C@@H]2O[C@H](C)C[C@H](N(C)C)[C@H]2O)[C@](C)(OC)C[C@@H](C)C(=O)[C@H](C)[C@H]2N(CCCCn3cnc(-c4cccnc4)c3)C(=O)O[C@]12C [Telithromycin] | -0.0824 | -0.372 | -0.0731 | -0.101

— the supplement of paper PMC10627819
